Laboratory results from ChEMBL document CHEMBL6074662, “Antibacterial, Antibiofilm, and Anti-inflammatory Effects of a Novel Thrombin-Derived Peptide in Sepsis Models: Insights into Underlying Mechanisms” (J Med Chem, 2024).
Values after ≈ are worked out from the molar mass of the structure shown. Active and inactive are the calls of the source. No cut-off for these calls is given here. Where a SMILES comes first, the peptide text is derived from it. Bridges are numbered along the chain shown (N, C = ends). [ ]: non-standard residue; d: D form. The star is where a group is joined. X1 = CC[C@H](C)CCCCC(=O)*; dDab = NCC[C@@H](N)C(=O)O; Dab = NCC[C@H](N)C(=O)O

Tests used:
[1] = test system: Pseudomonas aeruginosa; test: Antibacterial activity against multidrug-resistant Pseudomonas aeruginosa CCARM 2109 incubated for 24 hrs by CLSI based broth microdilution method; format: functional
[2] = Hemolytic activity in sheep RBC incubated for 1 hr by absorbance based assay; format: toxicity, cell-based, Ovis aries; details: erythrocyte
[3] = test system: Escherichia coli; test: Antibacterial activity against Escherichia coli KCTC 1682 incubated for 24 hrs by CLSI based broth microdilution method; format: functional
[4] = test system: Staphylococcus aureus; test: Antibacterial activity against methicillin-resistant Staphylococcus aureus CCARM 3090 incubated for 24 hrs by CLSI based broth microdilution method; format: functional
[5] = test system: Pseudomonas aeruginosa; test: Antibacterial activity against multidrug-resistant Pseudomonas aeruginosa CCARM 2095 incubated for 24 hrs by CLSI based broth microdilution method; format: functional
[6] = test system: Staphylococcus aureus; test: Antibacterial activity against methicillin-resistant Staphylococcus aureus CCARM 3089 incubated for 24 hrs by CLSI based broth microdilution method; format: functional
[7] = test system: Enterococcus faecium; test: Antibacterial activity against vancomycin-resistant Enterococcus faecium ATCC 51559 incubated for 24 hrs by CLSI based broth microdilution method; format: functional
[8] = test system: Acinetobacter baumannii; test: Antibacterial activity against carbapenem-resistant Acinetobacter baumannii CCARM 12005 incubated for 24 hrs by CLSI based broth microdilution method; format: functional
[9] = test system: Pseudomonas aeruginosa; test: Antibacterial activity against Pseudomonas aeruginosa KCTC 1637 incubated for 24 hrs by CLSI based broth microdilution method; format: functional
[10] = Effect on secondary structure of drug in TFE assessed as fold increase in formation of alpha-helical conformation at 150 uM by CD analysis relative to HVF18; format: physicochemical
[11] = Hydrophobicity of compound assessed as retention time by RP-HPLC analysis; format: physicochemical
[12] = test system: Staphylococcus epidermidis; test: Antibacterial activity against Staphylococcus epidermidis KCTC 1917 incubated for 24 hrs by CLSI based broth microdilution method; format: functional
[13] = test system: Acinetobacter baumannii; test: Antibacterial activity against carbapenem-resistant Acinetobacter baumannii NMS 1915 incubated for 24 hrs by CLSI based broth microdilution method; format: functional
[14] = test system: Staphylococcus aureus; test: Antibacterial activity against methicillin-resistant Staphylococcus aureus CCARM 3095 incubated for 24 hrs by CLSI based broth microdilution method; format: functional
[15] = test system: Acinetobacter baumannii; test: Antibacterial activity against multidrug-resistant Acinetobacter baumannii 329-97 incubated for 24 hrs by CLSI based broth microdilution method; format: functional
[16] = test system: Acinetobacter baumannii; test: Antibacterial activity against multidrug-resistant Acinetobacter baumannii 329-53 incubated for 24 hrs by CLSI based broth microdilution method; format: functional
[17] = test system: Salmonella typhimurium; test: Antibacterial activity against Salmonella typhimurium KCTC 1926 incubated for 24 hrs by CLSI based broth microdilution method; format: functional, Salmonella enterica subsp. enterica serovar Typhimurium; details: Salmonella enterica
[18] = Effect on secondary structure of drug in LPS assessed as fold increase in formation of alpha-helical conformation at 150 uM by CD analysis relative to HVF18; format: physicochemical
[19] = test system: Bacillus subtilis; test: Antibacterial activity against Bacillus subtilis KCTC 3068 incubated for 24 hrs by CLSI based broth microdilution method; format: functional
[20] = test system: Staphylococcus aureus; test: Antibacterial activity against Staphylococcus aureus KCTC 1621 incubated for 24 hrs by CLSI based broth microdilution method; format: functional
[21] = Effect on secondary structure of drug in SDS assessed as fold increase in formation of alpha-helical conformation at 150 uM by CD analysis relative to HVF18; format: physicochemical
[22] = Hemolytic activity in sheep RBC at 256 uM incubated for 1 hr by absorbance based assay; format: toxicity, cell-based, Ovis aries, Erythrocyte; details: sheep red blood cells, read-out: Activity
[23] = Effect on secondary structure of drug in PBS assessed as formation of random coil structure at 150 uM by CD analysis; format: physicochemical; details: buffer
[24] = test system: Acinetobacter baumannii; test: Antibacterial activity against carbapenem-resistant Acinetobacter baumannii NMS 1707 incubated for 24 hrs by CLSI based broth microdilution method; format: functional
[25] = test system: Staphylococcus aureus; test: Antibacterial activity against methicillin-resistant Staphylococcus aureus CCARM 3089 incubated for 24 hrs by broth microdilution method; format: functional
[26] = test system: Pseudomonas aeruginosa; test: Antibacterial activity against multi-drug resistant Pseudomonas aeruginosa CCARM 2095 incubated for 24 hrs by broth microdilution method; format: functional
[27] = test system: Pseudomonas aeruginosa; test: Eradication of biofilm formation in multi-drug resistant Pseudomonas aeruginosa CCARM 2095 at 32 uM incubated for 12 hrs by CLSM analysis relative to control; format: functional
[28] = test system: Pseudomonas aeruginosa; test: Inhibition of biofilm formation in multi-drug resistant Pseudomonas aeruginosa CCARM 2095 at 4 to 8 uM by crystal violet staining based analysis relative to control; format: functional; details: dose 4-8 µM
[29] = test system: Acinetobacter baumannii; test: Antibacterial activity against carbapenem-resistant Acinetobacter baumannii 1915 incubated for 24 hrs by CLSI based broth microdilution method; format: functional, organism-based
[30] = test system: Acinetobacter baumannii; test: Antibacterial activity against carbapenem-resistant Acinetobacter baumannii 1707 incubated for 24 hrs by CLSI based broth microdilution method; format: functional, organism-based
[31] = test system: Lipopolysaccharide (LPS); test: Disaggregation of FITC-labeled Escherichia coli 0111:B4 LPS assessed as increase in fluorescence intensity at higher concentration
[32] = test system: Escherichia coli; test: Induction of resistance development in Escherichia coli KCTC 1682 assessed as fold increase in MIC at 0.5 times MIC measured after 30 passages relative to control; format: functional
[33] = test system: Escherichia coli; test: Induction of inner membrane permeabilization in Escherichia coli KCTC 1682 at MIC by PI staining based flow cytometry (reference value: 1.51 %); format: functional
[34] = test system: Staphylococcus aureus; test: Bactericidal activity against methicillin-resistant Staphylococcus aureus CCARM 3089 at 128 to 512 uM incubated for 12 hrs by time-kill assay; format: functional, organism-based; details: dose 128-512 µM
[35] = test system: Pseudomonas aeruginosa; test: Bactericidal activity against multidrug-resistant Pseudomonas aeruginosa CCARM 2095 at 128 to 512 uM incubated for 12 hrs by time-kill assay; format: functional, organism-based; details: dose 128-512 µM

Compound	MIC [1] [µM]	HC10 [2] [µM]	MIC [3] [µM]	MIC [4] [µM]	MIC [5] [µM]	MIC [6] [µM]	MIC [7] [µM]	MIC [8] [µM]	MIC [9] [µM]	Retention_time [11] [min]	MIC [12] [µM]	MIC [13] [µM]	MIC [14] [µM]	MIC [15] [µM]	MIC [16] [µM]	MIC [17] [µM]	MIC [19] [µM]	MIC [20] [µM]	hemolysis at 1 h, 256 µM [22] [%]	MIC [24] [µM]	also measured
H-GVFRLKKWIQKVIRQWGR-NH2	16	122	8	8	2	8	8	4	8	25.15	4	2	4	2	4	4	2	8	21.2	2	fold change (FC) [10]: ~ 5; fold change (FC) [18]: ~ 5; fold change (FC) [21]: ~ 5; Activity [23]: Active
O=C(N[C@H](CO)[C@H](O)c1ccc([N+](=O)[O-])cc1)C(Cl)Cl [CHLORAMPHENICOL]																					MIC [25]: 1020 µM (≈ 331 µg/mL); MIC [26]: 4100 µM (≈ 1320 µg/mL)
CC[C@H](C)[C@H](NC(=O)[C@H](CCCCN)NC(=O)[C@H](CCC(=O)O)NC(=O)[C@H](CCCCN)NC(=O)[C@H](CO)NC(=O)[C@H](CCCCN)NC(=O)[C@H](CCCNC(=N)N)NC(=O)[C@H](Cc1ccccc1)NC(=O)[C@H](Cc1ccccc1)NC(=O)[C@H](CC(=O)O)NC(=O)CNC(=O)[C@H](CC(C)C)NC(=O)[C@@H](N)CC(C)C)C(=O)NCC(=O)N[C@@H](CCCCN)C(=O)N[C@@H](CCC(=O)O)C(=O)N[C@@H](Cc1ccccc1)C(=O)N[C@@H](CCCCN)C(=O)N[C@@H](CCCNC(=N)N)C(=O)N[C@H](C(=O)N[C@H](C(=O)N[C@@H](CCC(N)=O)C(=O)N[C@@H](CCCNC(=N)N)C(=O)N[C@H](C(=O)N[C@@H](CCCCN)C(=O)N[C@@H](CC(=O)O)C(=O)N[C@@H](Cc1ccccc1)C(=O)N[C@@H](CC(C)C)C(=O)N[C@@H](CCCNC(=N)N)C(=O)N[C@@H](CC(N)=O)C(=O)N[C@@H](CC(C)C)C(=O)N[C@H](C(=O)N1CCC[C@H]1C(=O)N[C@@H](CCCNC(=N)N)C(=O)N[C@H](C(=O)N[C@@H](CCC(=O)O)C(=O)N[C@@H](CO)C(=O)O)[C@@H](C)O)C(C)C)[C@@H](C)CC)C(C)C)[C@@H](C)CC [CATHELICIDIN]																					Activity [27]: >50%; inhibition (INH) [28]: >50%
C[C@@H](O)[C@H]1C(=O)N2C(C(=O)O)=C(SCCNC=N)C[C@H]12																					Activity [29]: inactive; Activity [30]: inactive
CC(C)CCCCC(=O)N[C@@H](CCN)C(=O)N[C@H](C(=O)N[C@@H](CCN)C(=O)N[C@H]1CCNC(=O)[C@H]([C@@H](C)O)NC(=O)[C@H](CCN)NC(=O)[C@H](CCN)NC(=O)[C@H](CC(C)C)NC(=O)[C@@H](Cc2ccccc2)NC(=O)[C@@H](CCN)NC1=O)[C@@H](C)O.CC[C@H](C)CCCCC(=O)N[C@@H](CCN)C(=O)N[C@H](C(=O)N[C@@H](CCN)C(=O)N[C@H]1CCNC(=O)[C@H]([C@@H](C)O)NC(=O)[C@H](CCN)NC(=O)[C@H](CCN)NC(=O)[C@H](CC(C)C)NC(=O)[C@@H](Cc2ccccc2)NC(=O)[C@@H](CCN)NC1=O)[C@@H](C)O (X1-[Dab]T[Dab][Dab][dDab][dF]L[Dab][Dab]T; lactam 4-C)																					Activity [31]: inactive
CN(C)[C@@H]1C(O)=C(C(N)=O)C(=O)[C@@]2(O)C(O)=C3C(=O)c4c(O)cccc4[C@@](C)(O)[C@H]3C[C@@H]12 [TETRACYCLINE]																					fold change (FC) [32]: 256
CC[C@H](C)[C@H](NC(=O)CN)C(=O)NCC(=O)N[C@@H](C)C(=O)N[C@H](C(=O)N[C@@H](CC(C)C)C(=O)N[C@@H](CCCCN)C(=O)N[C@H](C(=O)N[C@@H](CC(C)C)C(=O)N[C@H](C(=O)N[C@H](C(=O)NCC(=O)N[C@@H](CC(C)C)C(=O)N1CCC[C@H]1C(=O)N[C@@H](C)C(=O)N[C@@H](CC(C)C)C(=O)N[C@H](C(=O)N[C@@H](CO)C(=O)N[C@@H](Cc1c[nH]c2ccccc12)C(=O)N[C@H](C(=O)N[C@@H](CCCCN)C(=O)N[C@@H](CCCNC(=N)N)C(=O)N[C@@H](CCCCN)C(=O)N[C@@H](CCCNC(=N)N)C(=O)N[C@@H](CCC(N)=O)C(=O)N[C@@H](CCC(N)=O)C(N)=O)[C@@H](C)CC)[C@@H](C)CC)[C@@H](C)O)[C@@H](C)O)C(C)C)C(C)C [MELITTIN]		2.2					2 (≈ 5.69 µg/mL)	8 (≈ 22.8 µg/mL)				4 (≈ 11.4 µg/mL)		2 (≈ 5.69 µg/mL)	2 (≈ 5.69 µg/mL)					8 (≈ 22.8 µg/mL)	Activity [33]: ~100%
H-GVFRLKKWIRKVIRRWGR-NH2	16	116	16	4	2	4	4	8	8	22.99	8	4	8	2	8	4	4	8	20.4	8	fold change (FC) [10]: ~ 5; fold change (FC) [18]: ~ 5; fold change (FC) [21]: ~ 5; Activity [23]: Active
O=C(O)c1cn(C2CC2)c2cc(N3CCNCC3)c(F)cc2c1=O [CIPROFLOXACIN]																					MIC [25]: 1020 µM (≈ 339 µg/mL); fold change (FC) [32]: 8192; MIC [26]: 1020 µM (≈ 339 µg/mL)
H-HVFRLKKWIQKVIDQFGE-OH	> 128	> 256	32	> 128	128	> 128	> 128	4	128	25.53	16	64	> 128	4	4	32	32	128	7.8	32	
Cc1onc(-c2ccccc2)c1C(=O)N[C@@H]1C(=O)N2[C@@H]1SC(C)(C)[C@@H]2C(=O)O [OXACILLIN]																					Activity [34]: inactive; Activity [35]: inactive; MIC [25]: 2050 µM (≈ 822 µg/mL); MIC [26]: 4100 µM (≈ 1640 µg/mL)
H-GVFRLKKWIQKVIKQWGK-NH2	16	212	8	8	4	8	8	4	8	25.16	4	2	8	1	8	4	4	8	12.2	2	fold change (FC) [10]: ~ 5; fold change (FC) [18]: ~ 5; fold change (FC) [21]: ~ 5; Activity [23]: Active
